The record followed here is PMC6839570.

The data set in a line: Thioether (C-S) macrocyclisation: SN2' of the free C-terminal Cys-NH2 thiol on an N-terminal O-acetyl Morita-Baylis-Hillman (2-methylene-3-acetoxyacyl) residue, Et3N 3% v/v, 48 h; crude cleaved linear peptides. As to conditions: the molecule shown is the open-chain precursor, 16-membered ring, dry THF/CH2Cl2 1:1, 1.0 mM, 25.0 °C, 11 steps.
As to `C=C(C(=O)N[C@@H](C)C(=O)N[C@@H](CC(C)C)C(=O)N[C@@H](Cc1ccccc1)C(=O)N[C@@H](CS)C(N)=O)C(C)OC(C)=O` (stereo partly drawn) [CH3CH(OAc)C(=CH2)CO-Ala-Leu-Phe-Cys-NH2], the ring closure, overall yield is 14.8%.
For `C=C(C(=O)N[C@@H](Cc1ccccc1)C(=O)N[C@H](CC(C)C)C(=O)N[C@@H](C)C(=O)N[C@@H](CS)C(N)=O)C(C)OC(C)=O` (stereo partly drawn) [CH3CH(OAc)C(=CH2)CO-Phe-D-Leu-Ala-Cys-NH2] the value was 14.4%; for `C=C(C(=O)N[C@@H](Cc1ccccc1)C(=O)N[C@H](CC(C)C)C(=O)N[C@H](C)C(=O)N[C@@H](CS)C(N)=O)C(C)OC(C)=O` (stereo partly drawn) [CH3CH(OAc)C(=CH2)CO-Phe-D-Leu-D-Ala-Cys-NH2], 7.3%; for `C=C(C(=O)N[C@@H](Cc1ccccc1)C(=O)N[C@@H](CC(C)C)C(=O)N[C@@H](C)C(=O)N[C@@H](CS)C(N)=O)C(C)OC(C)=O` (stereo partly drawn) [CH3CH(OAc)C(=CH2)CO-Phe-Leu-Ala-Cys-NH2], 10.2%.
For the molecule `C=C(C(=O)N[C@@H](Cc1ccccc1)C(=O)N[C@@H](CC(C)C)C(=O)N[C@H](C)C(=O)N[C@@H](CS)C(N)=O)C(C)OC(C)=O` (stereo partly drawn) [CH3CH(OAc)C(=CH2)CO-Phe-Leu-D-Ala-Cys-NH2], the ring closure, overall yield turned out to be 2.7%.
In the case of `C=C(C(=O)N[C@@H](Cc1ccccc1)C(=O)N[C@H](CC(C)C)C(=O)N[C@H](C)C(=O)N[C@@H](CS)C(N)=O)C(CCCCCC)OC(C)=O` (stereo partly drawn) [n-C6H13CH(OAc)C(=CH2)CO-Phe-D-Leu-D-Ala-Cys-NH2] it was 11.8%; in that of `C=C(C(=O)N[C@@H](Cc1ccccc1)C(=O)N[C@@H](CC(C)C)C(=O)N[C@H](C)C(=O)N[C@@H](CS)C(N)=O)C(CCCCCC)OC(C)=O` (stereo partly drawn) [n-C6H13CH(OAc)C(=CH2)CO-Phe-Leu-D-Ala-Cys-NH2], 4.7%.
